The source made the active and inactive calls.
How the values were obtained:
[1] = target: Prothrombin (Bos taurus, UniProt P00735); assay: thrombin protease inhibitors – biochemical, fluorescence polarization, uHTS hits, dose response (AID 602369); type: functional
[2] = target: T1, Heat shock factor protein 1 (Mus musculus, UniProt P38532); assay: decrease of HSF1-responsive luciferase luminescence – cell-based, NIH3T3, dose retest, confirmation (AID 2382); type: functional;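 also: NIH3T3 fibroblasts with HSF1-driven luciferase reporter stressed by proteasome inhibitor MG132; luminescence from HSF1-driven luciferase expression after 8 hours of MG132 stress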
T1 sequence (P38532 whole entry): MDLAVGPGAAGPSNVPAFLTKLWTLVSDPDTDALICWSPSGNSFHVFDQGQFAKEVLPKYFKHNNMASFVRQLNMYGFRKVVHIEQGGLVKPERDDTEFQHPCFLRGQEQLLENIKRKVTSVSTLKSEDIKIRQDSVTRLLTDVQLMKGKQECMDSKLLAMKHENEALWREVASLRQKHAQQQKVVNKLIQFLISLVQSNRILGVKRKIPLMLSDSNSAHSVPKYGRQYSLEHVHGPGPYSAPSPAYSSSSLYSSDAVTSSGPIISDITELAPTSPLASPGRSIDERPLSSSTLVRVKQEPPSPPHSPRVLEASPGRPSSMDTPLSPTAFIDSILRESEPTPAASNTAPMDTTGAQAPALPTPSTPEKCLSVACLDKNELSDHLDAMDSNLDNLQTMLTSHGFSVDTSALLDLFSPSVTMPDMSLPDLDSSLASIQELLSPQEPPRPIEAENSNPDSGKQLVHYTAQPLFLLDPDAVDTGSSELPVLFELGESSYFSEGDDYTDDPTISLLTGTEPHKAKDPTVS

[3] = tested on: BJ; assay: BJ-TERT fibroblast viability loss – cell-based, RAS-independent, luminescence, dose response (AID 1933); type: functional; settings: Homo sapiens
[4] = DRD fibroblast viability loss – cell-based, non-viral oncogenic, luminescence, dose response (AID 1934); type: functional; settings: Homo sapiens
[5] = target: 26S proteasome non-ATPase regulatory subunit 14 (Homo sapiens, UniProt O00487); assay: inhibition of proteasome subunit RPN11 – biochemical, fluorescence polarization, uHTS hits, confirmation (AID 602368); type: functional
26S proteasome non-ATPase regulatory subunit 14, sequence (O00487 whole entry): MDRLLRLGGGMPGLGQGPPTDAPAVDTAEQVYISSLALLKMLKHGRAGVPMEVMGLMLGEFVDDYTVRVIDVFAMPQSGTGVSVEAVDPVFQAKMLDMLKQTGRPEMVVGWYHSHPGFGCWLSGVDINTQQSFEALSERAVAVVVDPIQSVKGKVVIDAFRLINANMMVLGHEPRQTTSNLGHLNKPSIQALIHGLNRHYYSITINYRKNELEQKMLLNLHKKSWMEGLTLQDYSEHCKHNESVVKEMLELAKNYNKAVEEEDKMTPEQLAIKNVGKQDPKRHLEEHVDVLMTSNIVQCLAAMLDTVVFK

[6] = target: T2, DNA repair protein RAD52 homolog (Homo sapiens, UniProt P43351); type: functional, biochemical
T2 sequence (P43351 whole entry): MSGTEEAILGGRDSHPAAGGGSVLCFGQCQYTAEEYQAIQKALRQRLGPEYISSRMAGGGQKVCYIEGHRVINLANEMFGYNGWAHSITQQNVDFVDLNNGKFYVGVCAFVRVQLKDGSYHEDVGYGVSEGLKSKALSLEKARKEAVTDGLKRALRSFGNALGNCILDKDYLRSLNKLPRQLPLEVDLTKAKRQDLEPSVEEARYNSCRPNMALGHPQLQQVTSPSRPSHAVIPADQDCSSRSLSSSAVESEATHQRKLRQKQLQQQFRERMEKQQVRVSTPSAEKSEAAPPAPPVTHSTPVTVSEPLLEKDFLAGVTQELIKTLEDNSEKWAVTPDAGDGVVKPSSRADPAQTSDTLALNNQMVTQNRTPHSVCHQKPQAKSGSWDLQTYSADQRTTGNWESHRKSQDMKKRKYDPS

[7] = tested on: BJ; assay: cells; type: functional, cell-based; settings: Homo sapiens
[8] = tested on: BJ; assay: BJ-TERT-LT-ST fibroblast viability loss – cell-based, RAS-independent, luminescence, dose response (AID 1935); type: functional; settings: Homo sapiens;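 also: BJ fibroblasts immortalized with TERT plus LT and ST oncogenes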
[9] = target: 72 kDa type IV collagenase (Homo sapiens, UniProt P08253); assay: Dose Response validation of uHTS RPN11 inhibitor hits using a MMP-2 Fluorescence assay.; type: functional
72 kDa type IV collagenase, sequence (P08253 whole entry): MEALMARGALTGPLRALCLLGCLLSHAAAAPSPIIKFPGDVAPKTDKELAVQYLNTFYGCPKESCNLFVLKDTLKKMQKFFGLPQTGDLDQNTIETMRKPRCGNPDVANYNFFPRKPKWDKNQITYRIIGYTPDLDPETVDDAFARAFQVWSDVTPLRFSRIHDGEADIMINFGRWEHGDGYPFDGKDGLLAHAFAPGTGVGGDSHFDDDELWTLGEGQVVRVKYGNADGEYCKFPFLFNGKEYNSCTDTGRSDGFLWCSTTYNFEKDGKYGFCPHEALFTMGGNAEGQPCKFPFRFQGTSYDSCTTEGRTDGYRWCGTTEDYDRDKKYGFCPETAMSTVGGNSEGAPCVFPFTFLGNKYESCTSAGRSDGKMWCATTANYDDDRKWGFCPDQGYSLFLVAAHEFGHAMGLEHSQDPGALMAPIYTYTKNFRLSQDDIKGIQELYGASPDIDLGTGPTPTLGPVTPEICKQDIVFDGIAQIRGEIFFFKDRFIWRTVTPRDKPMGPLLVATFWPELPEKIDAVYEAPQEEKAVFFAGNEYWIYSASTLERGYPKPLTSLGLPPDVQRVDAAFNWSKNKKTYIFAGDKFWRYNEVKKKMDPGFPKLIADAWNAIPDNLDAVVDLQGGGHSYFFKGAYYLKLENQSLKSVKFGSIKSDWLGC

[10] = tested on: BJ; assay: growth inhibition of engineered Ras-driven BJ cells – cell-based, alamar blue fluorescence, cherrypicked samples, dose response (AID 2631); type: functional; settings: Homo sapiens;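 also: confirmatory dose-response assay in RAS-dependent BJ fibroblasts engineered with TERT, LT and ST, with cytotoxicity read by fluorescence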
[11] = target: T3, Corticotropin-releasing factor receptor 2/Corticotropin-releasing factor-binding protein (Homo sapiens, UniProt P24387+Q13324); assay: activators of CRF receptor 2 with binding protein – uHTS hits, confirmation (AID 602473); type: functional; settings: read-out: EC50_Mean
T3 sequence (Q13324 whole entry): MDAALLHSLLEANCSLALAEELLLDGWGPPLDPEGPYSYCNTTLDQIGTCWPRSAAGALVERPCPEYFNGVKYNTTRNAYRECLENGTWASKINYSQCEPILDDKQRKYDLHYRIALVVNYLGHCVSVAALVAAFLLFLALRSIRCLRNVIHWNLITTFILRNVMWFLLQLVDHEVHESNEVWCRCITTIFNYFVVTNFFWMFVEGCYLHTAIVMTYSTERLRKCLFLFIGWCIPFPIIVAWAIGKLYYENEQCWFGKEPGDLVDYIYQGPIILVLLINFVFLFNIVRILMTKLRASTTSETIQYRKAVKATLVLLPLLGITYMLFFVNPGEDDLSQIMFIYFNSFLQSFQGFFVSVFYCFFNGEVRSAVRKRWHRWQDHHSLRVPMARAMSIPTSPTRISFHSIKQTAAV
T3 sequence (P24387 whole entry): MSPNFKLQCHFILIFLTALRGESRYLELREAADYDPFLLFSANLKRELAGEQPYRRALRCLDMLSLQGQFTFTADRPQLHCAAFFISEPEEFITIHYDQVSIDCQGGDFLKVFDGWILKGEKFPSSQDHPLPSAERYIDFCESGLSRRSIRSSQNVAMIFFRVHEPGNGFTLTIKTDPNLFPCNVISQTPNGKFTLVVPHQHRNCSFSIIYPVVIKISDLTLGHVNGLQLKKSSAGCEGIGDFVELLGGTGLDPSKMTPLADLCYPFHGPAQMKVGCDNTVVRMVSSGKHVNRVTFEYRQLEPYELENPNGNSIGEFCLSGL

[12] = target: T3, Corticotropin-releasing factor receptor 2/Corticotropin-releasing factor-binding protein; assay: Dose Response confirmation of uHTS hits for small molecule antagonists of the CRF-binding protein and CRF-R2 receptor complex.; type: functional; settings: read-out: IC50_Mean
[13] = target: T4, Low molecular weight phosphotyrosine protein phosphatase (Homo sapiens, UniProt P24666); type: functional; settings: read-out: IC50_Mean;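 also: Dose-response confirmation assay measuring inhibition of LMPTP enzyme activity by fluorescence intensity read-out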
T4 sequence (P24666 whole entry): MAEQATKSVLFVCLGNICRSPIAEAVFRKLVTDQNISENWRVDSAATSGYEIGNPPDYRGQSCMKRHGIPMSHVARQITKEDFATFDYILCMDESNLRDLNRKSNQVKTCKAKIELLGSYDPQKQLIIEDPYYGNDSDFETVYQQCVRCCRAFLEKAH

[14] = target: Peroxisome proliferator-activated receptor gamma/Nuclear receptor coactivator 3 (Homo sapiens, UniProt P37231); type: functional;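 also: agonist potency for raising coactivator recruitment to the receptor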
Peroxisome proliferator-activated receptor gamma/Nuclear receptor coactivator 3, sequence (P37231 whole entry): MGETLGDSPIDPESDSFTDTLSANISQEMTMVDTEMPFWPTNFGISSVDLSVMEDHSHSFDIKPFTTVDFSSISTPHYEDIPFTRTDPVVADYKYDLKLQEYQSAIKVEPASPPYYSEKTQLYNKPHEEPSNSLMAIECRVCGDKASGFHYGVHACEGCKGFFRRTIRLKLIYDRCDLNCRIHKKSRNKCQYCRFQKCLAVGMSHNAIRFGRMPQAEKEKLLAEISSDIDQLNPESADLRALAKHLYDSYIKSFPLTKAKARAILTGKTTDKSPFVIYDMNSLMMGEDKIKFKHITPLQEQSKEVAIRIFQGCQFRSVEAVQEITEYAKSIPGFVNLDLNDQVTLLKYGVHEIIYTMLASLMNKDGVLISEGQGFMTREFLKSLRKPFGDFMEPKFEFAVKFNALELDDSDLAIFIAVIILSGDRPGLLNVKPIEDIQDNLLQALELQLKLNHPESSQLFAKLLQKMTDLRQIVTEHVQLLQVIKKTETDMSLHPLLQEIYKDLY
Peroxisome proliferator-activated receptor gamma/Nuclear receptor coactivator 3, sequence (Q9Y6Q9 whole entry, further chain): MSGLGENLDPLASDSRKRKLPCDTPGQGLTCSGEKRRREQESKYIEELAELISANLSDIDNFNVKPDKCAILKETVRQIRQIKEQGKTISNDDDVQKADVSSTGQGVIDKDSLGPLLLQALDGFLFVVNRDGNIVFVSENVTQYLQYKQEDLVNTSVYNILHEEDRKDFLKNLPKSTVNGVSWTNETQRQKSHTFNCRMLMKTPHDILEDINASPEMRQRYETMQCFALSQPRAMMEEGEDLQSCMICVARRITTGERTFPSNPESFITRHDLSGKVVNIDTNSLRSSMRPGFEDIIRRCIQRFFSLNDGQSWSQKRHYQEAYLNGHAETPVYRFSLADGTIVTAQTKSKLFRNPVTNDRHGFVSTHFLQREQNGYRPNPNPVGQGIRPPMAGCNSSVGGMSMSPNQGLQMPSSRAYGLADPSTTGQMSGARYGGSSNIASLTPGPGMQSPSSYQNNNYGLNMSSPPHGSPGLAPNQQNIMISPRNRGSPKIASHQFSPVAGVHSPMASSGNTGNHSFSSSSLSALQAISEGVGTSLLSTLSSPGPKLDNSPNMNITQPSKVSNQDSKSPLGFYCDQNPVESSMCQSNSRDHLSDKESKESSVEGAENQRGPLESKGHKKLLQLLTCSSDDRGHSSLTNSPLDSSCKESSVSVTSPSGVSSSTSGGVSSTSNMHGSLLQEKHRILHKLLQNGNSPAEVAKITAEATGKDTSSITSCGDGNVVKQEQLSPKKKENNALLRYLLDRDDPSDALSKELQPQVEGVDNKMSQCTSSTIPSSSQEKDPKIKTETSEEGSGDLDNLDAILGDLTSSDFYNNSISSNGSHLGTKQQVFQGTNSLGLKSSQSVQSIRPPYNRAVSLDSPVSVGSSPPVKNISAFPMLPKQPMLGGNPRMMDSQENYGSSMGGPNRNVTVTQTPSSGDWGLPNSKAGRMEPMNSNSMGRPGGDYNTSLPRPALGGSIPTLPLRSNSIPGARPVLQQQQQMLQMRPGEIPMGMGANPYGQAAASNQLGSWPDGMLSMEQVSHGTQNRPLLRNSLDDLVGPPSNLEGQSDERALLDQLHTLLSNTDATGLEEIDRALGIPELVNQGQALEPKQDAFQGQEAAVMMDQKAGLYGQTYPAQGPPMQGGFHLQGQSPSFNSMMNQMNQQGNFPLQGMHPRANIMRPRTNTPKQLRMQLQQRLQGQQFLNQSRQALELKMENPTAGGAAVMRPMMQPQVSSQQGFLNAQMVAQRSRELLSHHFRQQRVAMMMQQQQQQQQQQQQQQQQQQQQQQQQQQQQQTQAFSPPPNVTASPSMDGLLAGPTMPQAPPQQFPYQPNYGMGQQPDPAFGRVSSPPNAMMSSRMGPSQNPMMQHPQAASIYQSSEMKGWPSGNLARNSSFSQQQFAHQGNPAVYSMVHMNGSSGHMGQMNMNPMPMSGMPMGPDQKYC

[15] = target: T5, Protein RecA (Mycobacterium tuberculosis, UniProt P9WHJ3); assay: Fluorescence Cell-Free Homogeneous Dose Retest to Identify Inhibitors of RecA-Intein Splicing Activity. [Related pubchem assays (depositor defined):AID2097, AID2223, AID489010, AID492950]; type: functional
T5 sequence (P9WHJ3 whole entry): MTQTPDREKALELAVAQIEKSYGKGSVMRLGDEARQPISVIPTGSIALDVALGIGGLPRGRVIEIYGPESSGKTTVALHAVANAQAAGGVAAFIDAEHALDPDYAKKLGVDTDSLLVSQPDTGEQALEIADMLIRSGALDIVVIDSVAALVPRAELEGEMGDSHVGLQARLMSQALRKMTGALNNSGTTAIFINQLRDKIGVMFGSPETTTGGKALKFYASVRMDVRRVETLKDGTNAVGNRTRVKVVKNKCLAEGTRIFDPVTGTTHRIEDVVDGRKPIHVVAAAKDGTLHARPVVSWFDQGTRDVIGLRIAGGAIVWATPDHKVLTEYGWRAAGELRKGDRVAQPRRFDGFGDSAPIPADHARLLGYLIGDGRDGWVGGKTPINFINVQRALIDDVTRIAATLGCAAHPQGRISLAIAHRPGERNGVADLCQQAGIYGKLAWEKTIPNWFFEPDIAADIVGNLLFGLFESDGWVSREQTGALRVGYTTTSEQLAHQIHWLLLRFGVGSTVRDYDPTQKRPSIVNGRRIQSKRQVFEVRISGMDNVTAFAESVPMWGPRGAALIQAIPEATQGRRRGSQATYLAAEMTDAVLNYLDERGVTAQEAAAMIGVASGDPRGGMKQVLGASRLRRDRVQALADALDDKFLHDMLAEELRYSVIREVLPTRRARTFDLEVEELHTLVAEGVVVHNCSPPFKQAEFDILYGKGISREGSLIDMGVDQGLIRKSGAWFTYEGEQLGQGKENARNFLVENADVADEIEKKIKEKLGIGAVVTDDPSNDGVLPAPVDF

[16] = target: T6, Replicative DNA helicase DnaB (Mycobacterium tuberculosis, UniProt P9WMR3); assay: DnaB intein splicing inhibitors, dose response, biochemical, cell-free fluorescence (AID 449749); type: functional
T6 sequence (P9WMR3 whole entry): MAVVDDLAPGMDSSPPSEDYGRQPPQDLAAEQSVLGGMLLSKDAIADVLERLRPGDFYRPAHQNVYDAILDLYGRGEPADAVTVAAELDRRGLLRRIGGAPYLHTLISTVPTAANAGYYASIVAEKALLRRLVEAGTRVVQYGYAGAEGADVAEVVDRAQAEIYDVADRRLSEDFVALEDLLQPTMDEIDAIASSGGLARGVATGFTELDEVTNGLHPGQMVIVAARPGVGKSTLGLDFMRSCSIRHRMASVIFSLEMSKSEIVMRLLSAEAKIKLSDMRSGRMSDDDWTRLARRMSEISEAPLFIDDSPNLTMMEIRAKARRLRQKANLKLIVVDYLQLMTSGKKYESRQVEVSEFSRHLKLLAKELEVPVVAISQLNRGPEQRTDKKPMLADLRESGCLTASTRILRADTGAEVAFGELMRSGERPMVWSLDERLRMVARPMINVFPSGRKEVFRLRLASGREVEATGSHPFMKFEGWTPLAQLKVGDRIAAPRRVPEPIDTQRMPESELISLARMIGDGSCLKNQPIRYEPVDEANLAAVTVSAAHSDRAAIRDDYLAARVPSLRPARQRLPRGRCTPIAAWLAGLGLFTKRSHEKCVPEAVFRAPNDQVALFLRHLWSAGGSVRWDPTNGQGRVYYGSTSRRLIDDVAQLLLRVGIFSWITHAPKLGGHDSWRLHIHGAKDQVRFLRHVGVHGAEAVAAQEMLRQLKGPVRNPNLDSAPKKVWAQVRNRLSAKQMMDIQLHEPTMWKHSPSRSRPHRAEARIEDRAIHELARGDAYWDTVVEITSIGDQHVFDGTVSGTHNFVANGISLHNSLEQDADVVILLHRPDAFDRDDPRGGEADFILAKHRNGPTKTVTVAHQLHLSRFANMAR

[17] = target: Peroxisome proliferator-activated receptor gamma/Nuclear receptor coactivator 2 (Homo sapiens, UniProt P37231); type: functional;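 also: agonist potency for raising coactivator recruitment to the receptor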
[18] = target: Peroxisome proliferator-activated receptor gamma/Nuclear receptor coactivator 1 (Homo sapiens, UniProt P37231); type: functional;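 also: agonist potency as compounds enhance coactivator SRC-1 recruitment to PPARgamma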
Peroxisome proliferator-activated receptor gamma/Nuclear receptor coactivator 1, sequence (P37231 whole entry): as the sequence (P37231 whole entry) above
Peroxisome proliferator-activated receptor gamma/Nuclear receptor coactivator 1, sequence (Q15788 whole entry, further chain): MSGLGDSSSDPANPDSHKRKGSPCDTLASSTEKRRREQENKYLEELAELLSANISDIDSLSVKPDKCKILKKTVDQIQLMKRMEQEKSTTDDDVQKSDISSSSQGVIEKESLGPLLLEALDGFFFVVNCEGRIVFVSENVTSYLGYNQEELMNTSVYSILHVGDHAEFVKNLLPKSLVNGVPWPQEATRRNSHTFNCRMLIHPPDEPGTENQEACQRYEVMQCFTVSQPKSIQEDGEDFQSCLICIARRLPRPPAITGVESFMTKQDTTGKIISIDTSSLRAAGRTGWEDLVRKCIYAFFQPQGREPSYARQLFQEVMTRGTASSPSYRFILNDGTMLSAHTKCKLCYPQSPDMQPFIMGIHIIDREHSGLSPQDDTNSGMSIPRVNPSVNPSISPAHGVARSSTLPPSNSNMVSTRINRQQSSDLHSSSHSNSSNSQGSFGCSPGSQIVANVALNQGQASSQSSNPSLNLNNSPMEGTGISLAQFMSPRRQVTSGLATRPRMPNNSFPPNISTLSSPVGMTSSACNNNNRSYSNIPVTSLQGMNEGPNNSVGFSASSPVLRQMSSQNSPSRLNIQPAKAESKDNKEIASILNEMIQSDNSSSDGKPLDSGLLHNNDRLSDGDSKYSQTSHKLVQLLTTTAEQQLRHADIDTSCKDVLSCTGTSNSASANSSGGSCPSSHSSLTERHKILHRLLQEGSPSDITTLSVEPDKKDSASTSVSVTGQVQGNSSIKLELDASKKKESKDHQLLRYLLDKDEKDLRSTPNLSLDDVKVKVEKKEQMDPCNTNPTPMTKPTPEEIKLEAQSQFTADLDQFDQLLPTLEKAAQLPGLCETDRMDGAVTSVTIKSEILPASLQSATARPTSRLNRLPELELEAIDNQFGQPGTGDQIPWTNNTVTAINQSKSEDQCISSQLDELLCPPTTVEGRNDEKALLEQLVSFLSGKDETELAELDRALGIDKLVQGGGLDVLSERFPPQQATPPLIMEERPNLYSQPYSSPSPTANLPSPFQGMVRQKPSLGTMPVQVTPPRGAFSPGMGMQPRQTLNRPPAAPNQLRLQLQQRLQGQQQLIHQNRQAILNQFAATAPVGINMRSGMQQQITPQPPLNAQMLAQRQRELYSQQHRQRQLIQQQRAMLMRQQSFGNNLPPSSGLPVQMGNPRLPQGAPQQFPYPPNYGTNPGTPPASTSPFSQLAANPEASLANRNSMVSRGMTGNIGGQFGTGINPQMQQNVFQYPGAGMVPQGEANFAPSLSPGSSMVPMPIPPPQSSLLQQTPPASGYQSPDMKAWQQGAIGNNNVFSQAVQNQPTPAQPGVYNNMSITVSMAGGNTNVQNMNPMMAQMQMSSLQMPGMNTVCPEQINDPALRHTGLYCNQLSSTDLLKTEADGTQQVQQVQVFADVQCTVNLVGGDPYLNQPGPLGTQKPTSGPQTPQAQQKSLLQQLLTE

[19] = viability of PTEN-deleted HCT116 cells – cell-based, HCT116 PTEN knockout, dose response (AID 1047); type: functional;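 also: HCT116 colon tumor cells with PTEN knocked out; cells exposed to compound for 60 hours before readout; potency for loss of cell viability measured by luminescence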
[20] = viability of HCT116 lacking mutant beta-catenin – cell-based, human colon tumor, dose response (AID 1045); type: functional;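 also: HCT116 colon tumor cells with beta catenin knocked out; cells exposed to compound for 60 hours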
[21] = microbe, parasite or virus in culture; type: functional; settings: Mycobacterium tuberculosis

CCN1CCc2c(sc(NC(=O)c3cc4ccccc4cc3OC)c2C(N)=O)C1
IC50 [1]: 32.5 µM (active) | EC50 [2]: 40.7 µM (active) | EC50 [3]: 4.46 µM (inconclusive) | EC50 [4]: 6.38 µM (active) | IC50 [5]: 26.3 µM (active) | AC50 [6]: 3.75 µM (active) | EC50 [7]: 5.67 µM (inconclusive) | EC50 [8]: 4.91 µM (inconclusive) | IC50 [9]: > 100 µM (inactive) | EC50 [10]: 937 nM (active)

COc1ccc(Cn2c(-c3ccco3)nc3c(c(=O)c4ccccc4n3C)c2=O)cc1
EC50 [11]: > 53 µM (inactive) | IC50 [12]: > 47.1 µM (inactive) | IC50 [13]: 39 µM (inactive)

O=c1c(Cl)nc2cc(Cl)ccc2n1CCNc1ncc(C(F)(F)F)cc1Cl
EC50 [14]: 36.3 µM (not active) | EC50 [3]: 2.67 µM (inconclusive) | EC50 [15]: 951 nM (active) | AC50 [16]: > 120 µM (inactive) | EC50 [4]: 2.81 µM (inconclusive) | EC50 [17]: 20.1 µM (not active) | EC50 [18]: 19.8 µM (not active) | EC50 [7]: 6.1 µM (inconclusive) | EC50 [8]: 1.98 µM (active) | EC50 [19]: 4.75 µM (active) | EC50 [20]: 4.66 µM (active) | CC50 [21]: 11.5 µM (active) | EC50 [10]: 574 nM (inconclusive)

Reference: ChEMBL document CHEMBL1201862, “PubChem BioAssay data set” (2004)
